Values quoted from earlier work, collected in patent US20190201418A1, “TREATMENT OF UTERINE FIBROIDS BY INTRAVAGINAL ADMINISTRATION OF A LOW DOSE OF SELECTIVE PROGESTERONE RECEPTOR MODULATOR (SPRM), ANTI-PROGESTIN, OR ANTI-PROGESTATIONAL AGENT” (ARSTAT, INC., priority 2011, published 2019).

Assays:
[1] = tested on: liver enzymes; details: oral
[2] = tested on: endometrial lining of the uterus; details: oral
[3] = tested on: uterine fibroids
[4] = tested on: glucocorticoid blockade; details: in vivo
[5] = tested on: symptomatic uterine fibroids; details: oral 5-mg and 10-mg tablets, Phase III
[6] = oral mifepristone 10 mg/day or higher

In the case of `COCC(=O)[C@@]1(OC(C)=O)CC[C@H]2[C@@H]3CCC4=CC(=O)CCC4=C3[C@@H](c3ccc(N(C)C)cc3)C[C@@]21C` [CDB-4124], the “safety finding leading to suspension of the Phase III studies” value [1] is given as “significant increases in liver enzymes”.
For `COC[C@]1(OC)CC[C@H]2[C@@H]3CCC4=CC(=O)CCC4=C3[C@@H](c3ccc(/C=N/O)cc3)C[C@@]21C` [asoprisnil], the “safety finding leading to termination of the Phase III studies” value [2] is listed as “changes in the endometrial lining of the uterus that resulted in additional invasive procedures in some patients”.
In the case of `CC#C[C@]1(O)CC[C@H]2[C@@H]3CCC4=CC(=O)CCC4=C3[C@@H](c3ccc(N(C)C)cc3)C[C@@]21C` [mifepristone], the “reduction of uterine volume and incidence of amenorrhea” value ([3]; oral mifepristone 2.5 mg/day) is given as “appreciably smaller reduction of uterine volume and a lower incidence of amenorrhea”, the “ability to reduce uterine volume and eliminate fibroid-related symptoms” value ([3]; oral mifepristone 5 mg) is given as “limited” and the “incidence of side effects (endometrial hyperplasia, hot flashes, elevated liver enzymes)” value [3, 6] is given as “seems to be greater than desired”. For the same compound, the “reduction of uterine and fibroid volumes and related symptoms” value [3, 6] was “effective in the reduction of uterine and fibroid volumes and related symptoms” and the “dose at which glucocorticoid blockade is reported” value [4] was no less than 50 mg.
For `CC(=O)O[C@]1(C(C)=O)CC[C@H]2[C@@H]3CCC4=CC(=O)CCC4=C3[C@@H](c3ccc(N(C)C)cc3)C[C@@]21C` [ulipristal acetate], the “efficacy and safety in the treatment of symptomatic uterine fibroids” value [5] is given as “confirmed the efficacy and safety”.
